The record followed here is ChEMBL document CHEMBL4414648, “Novel Benzohydroxamate-Based Potent and Selective Histone Deacetylase 6 (HDAC6) Inhibitors Bearing a Pentaheterocyclic Scaffold: Design, Synthesis, and Biological Evaluation” (J Med Chem, 2019).

In general, IC50 refers to the concentration needed to halve the response being measured.

In one series the test system is Histone deacetylase. As to the kind of experiment: Inhibition of HDAC in human 697 cells assessed as increase in H3 acetylation at 1000 nM incubated for 16 hrs by ELISA. The series is classed as cell-based. The following applies: human, 697, 16 h, 1 µM. (In general: ELISA stands for enzyme-linked immunosorbent assay.)
Series [1] is described as follows: Selectivity ratio of IC50 for C-terminal GST-tagged human HDAC5 to IC50 for human N-terminal GST-tagged HDAC6 expressed in baculovirus infected sf9 insect cells.
Series [2] can be described thus: Selectivity ratio of IC50 for N-terminal GST-tagged human HDAC7 (518 to end residues) expressed in baculovirus infected sf9 insect cells to IC50 for human N-terminal GST-tagged HDAC6 expressed in baculovirus infected sf9 insect cells.
The nature of series [3]: Selectivity ratio of IC50 for C-terminal His-tagged human HDAC8 expressed in baculovirus infected sf9 insect cells to IC50 for human N-terminal GST-tagged HDAC6 expressed in baculovirus infected sf9 insect cells.
The nature of series [4]: Selectivity ratio of IC50 for human HDAC4 expressed in baculovirus infected sf9 insect cells to IC50 for human N-terminal GST-tagged HDAC6 expressed in baculovirus infected sf9 insect cells.
Series [5] is described as follows: Stability in human liver S9 fraction assessed as parent compound remaining at 5 uM after 90 mins in presence of NADPH by LC-MS/MS analysis. It counts as ADME, subcellular. The conditions noted are these: read-out: Stability.
Series [6] in a line: Stability in rat plasma assessed as parent compound remaining at 100 uM after 4 hrs by LC-MS/MS analysis. It counts as ADME, cell-free. The conditions noted are these: read-out: Stability.
Series [7] is described as follows: Stability in human plasma assessed as parent compound remaining at 100 uM after 4 hrs by LC-MS/MS analysis. It counts as ADME, cell-free. The conditions noted are these: read-out: Stability.
A short description of series [8]: Stability in rat liver S9 fraction assessed as parent compound remaining at 5 uM after 90 mins in presence of NADPH by LC-MS/MS analysis. It counts as ADME, subcellular. The following applies: read-out: Stability.
Series [9] is described as follows: Selectivity ratio of IC50 for C-terminal His-tagged human HDAC9 (604 to 1066 residues) expressed in baculovirus infected sf9 insect cells to IC50 for human N-terminal GST-tagged HDAC6 expressed in baculovirus infected sf9 insect cells.
Series [10] can be described thus: Selectivity ratio of IC50 for N-terminal Flag-tagged human HDAC10 (2 to 631 residues) expressed in baculovirus infected sf9 insect cells to IC50 for human N-terminal GST-tagged HDAC6 expressed in baculovirus infected sf9 insect cells.
Series [11] in a line: Selectivity ratio of IC50 for N-terminal His-tagged human HDAC11 expressed in baculovirus expression system to IC50 for human N-terminal GST-tagged HDAC6 expressed in baculovirus infected sf9 insect cells.
Another series deals with 697. The series is described as follows: Cytotoxicity against human 697 cells after 48 hrs by CellTiter 96 aqueous one solution assay. The series is classed as cell-based. The following applies: Homo sapiens, 697, 48 h.
The next series has as its system PBMC. As to the kind of experiment: Cytotoxicity against human PBMC cells after 72 hrs by CellTiter 96 aqueous one solution assay. The series is classed as cell-based.
Series [12] has as its target T1, Protein deacetylase HDAC6 (Homo sapiens, UniProt Q9UBN7).
T1 sequence (Q9UBN7 whole entry): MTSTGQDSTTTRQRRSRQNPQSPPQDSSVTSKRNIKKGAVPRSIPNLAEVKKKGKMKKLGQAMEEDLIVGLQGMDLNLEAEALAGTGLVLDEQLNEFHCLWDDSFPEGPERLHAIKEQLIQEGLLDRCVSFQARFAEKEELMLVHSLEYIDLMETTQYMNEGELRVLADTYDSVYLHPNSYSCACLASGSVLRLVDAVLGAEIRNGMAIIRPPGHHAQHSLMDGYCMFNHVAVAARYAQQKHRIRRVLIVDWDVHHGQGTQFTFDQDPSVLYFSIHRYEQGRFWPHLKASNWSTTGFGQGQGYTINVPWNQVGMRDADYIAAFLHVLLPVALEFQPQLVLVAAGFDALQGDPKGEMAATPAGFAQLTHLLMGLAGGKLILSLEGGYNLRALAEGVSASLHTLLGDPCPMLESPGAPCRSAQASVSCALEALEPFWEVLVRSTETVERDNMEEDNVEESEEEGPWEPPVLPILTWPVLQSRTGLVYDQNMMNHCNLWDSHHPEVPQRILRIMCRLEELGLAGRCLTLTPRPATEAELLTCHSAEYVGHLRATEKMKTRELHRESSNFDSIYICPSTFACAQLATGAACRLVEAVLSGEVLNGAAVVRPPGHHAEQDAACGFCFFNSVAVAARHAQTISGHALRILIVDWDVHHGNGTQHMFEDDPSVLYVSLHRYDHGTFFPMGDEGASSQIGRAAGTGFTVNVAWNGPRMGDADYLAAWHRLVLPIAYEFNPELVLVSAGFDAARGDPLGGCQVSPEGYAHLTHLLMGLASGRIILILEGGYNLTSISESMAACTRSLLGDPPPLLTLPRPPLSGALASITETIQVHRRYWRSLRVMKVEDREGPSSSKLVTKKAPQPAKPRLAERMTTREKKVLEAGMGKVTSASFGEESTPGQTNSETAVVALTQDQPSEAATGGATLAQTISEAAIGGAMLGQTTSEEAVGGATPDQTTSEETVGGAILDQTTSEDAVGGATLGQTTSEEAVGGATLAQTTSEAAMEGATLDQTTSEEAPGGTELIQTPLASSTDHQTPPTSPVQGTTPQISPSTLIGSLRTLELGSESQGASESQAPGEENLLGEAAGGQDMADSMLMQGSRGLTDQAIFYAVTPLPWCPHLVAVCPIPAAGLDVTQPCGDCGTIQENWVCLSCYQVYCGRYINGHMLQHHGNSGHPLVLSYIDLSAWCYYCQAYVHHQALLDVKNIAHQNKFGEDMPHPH
As to the kind of experiment: biochemical.
Description: Inhibition of recombinant full length human N-terminal GST-tagged HDAC6 expressed in baculovirus infected sf9 insect cells pretreated with compound followed by Fluor de Lys deacetylase substrate addition by fluorescence method

In series [13] the target is Histone deacetylase 3/Nuclear receptor corepressor 2 (HDAC3/NCoR2) (Homo sapiens, UniProt O15379). The series is described as follows: Inhibition of C-terminal His-tagged human HDAC3 (1 to 428 residues)/N-terminal GST tagged human NCOR2 (395 to 489) expressed in baculovirus infected sf9 insect cells pretreated with compound followed by Fluor de Lys deacetylase substrate addition by fluorescence method.
Sequence of Histone deacetylase 3/Nuclear receptor corepressor 2 (HDAC3/NCoR2) (O15379 whole entry, the tested form may be a part): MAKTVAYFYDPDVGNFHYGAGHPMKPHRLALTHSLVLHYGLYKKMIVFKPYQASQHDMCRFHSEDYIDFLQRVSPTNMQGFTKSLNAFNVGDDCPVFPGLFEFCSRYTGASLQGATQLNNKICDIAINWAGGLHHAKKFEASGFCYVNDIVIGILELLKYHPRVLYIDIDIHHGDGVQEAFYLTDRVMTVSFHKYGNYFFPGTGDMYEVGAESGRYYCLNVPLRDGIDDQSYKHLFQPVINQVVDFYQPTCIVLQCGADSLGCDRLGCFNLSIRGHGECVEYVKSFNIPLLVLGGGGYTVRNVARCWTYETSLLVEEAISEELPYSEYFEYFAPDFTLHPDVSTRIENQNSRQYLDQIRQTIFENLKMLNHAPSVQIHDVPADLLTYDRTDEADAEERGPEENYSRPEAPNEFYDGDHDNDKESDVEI
Sequence of Histone deacetylase 3/Nuclear receptor corepressor 2 (HDAC3/NCoR2) (Q9Y618 whole entry, further chain, the tested form may be a part): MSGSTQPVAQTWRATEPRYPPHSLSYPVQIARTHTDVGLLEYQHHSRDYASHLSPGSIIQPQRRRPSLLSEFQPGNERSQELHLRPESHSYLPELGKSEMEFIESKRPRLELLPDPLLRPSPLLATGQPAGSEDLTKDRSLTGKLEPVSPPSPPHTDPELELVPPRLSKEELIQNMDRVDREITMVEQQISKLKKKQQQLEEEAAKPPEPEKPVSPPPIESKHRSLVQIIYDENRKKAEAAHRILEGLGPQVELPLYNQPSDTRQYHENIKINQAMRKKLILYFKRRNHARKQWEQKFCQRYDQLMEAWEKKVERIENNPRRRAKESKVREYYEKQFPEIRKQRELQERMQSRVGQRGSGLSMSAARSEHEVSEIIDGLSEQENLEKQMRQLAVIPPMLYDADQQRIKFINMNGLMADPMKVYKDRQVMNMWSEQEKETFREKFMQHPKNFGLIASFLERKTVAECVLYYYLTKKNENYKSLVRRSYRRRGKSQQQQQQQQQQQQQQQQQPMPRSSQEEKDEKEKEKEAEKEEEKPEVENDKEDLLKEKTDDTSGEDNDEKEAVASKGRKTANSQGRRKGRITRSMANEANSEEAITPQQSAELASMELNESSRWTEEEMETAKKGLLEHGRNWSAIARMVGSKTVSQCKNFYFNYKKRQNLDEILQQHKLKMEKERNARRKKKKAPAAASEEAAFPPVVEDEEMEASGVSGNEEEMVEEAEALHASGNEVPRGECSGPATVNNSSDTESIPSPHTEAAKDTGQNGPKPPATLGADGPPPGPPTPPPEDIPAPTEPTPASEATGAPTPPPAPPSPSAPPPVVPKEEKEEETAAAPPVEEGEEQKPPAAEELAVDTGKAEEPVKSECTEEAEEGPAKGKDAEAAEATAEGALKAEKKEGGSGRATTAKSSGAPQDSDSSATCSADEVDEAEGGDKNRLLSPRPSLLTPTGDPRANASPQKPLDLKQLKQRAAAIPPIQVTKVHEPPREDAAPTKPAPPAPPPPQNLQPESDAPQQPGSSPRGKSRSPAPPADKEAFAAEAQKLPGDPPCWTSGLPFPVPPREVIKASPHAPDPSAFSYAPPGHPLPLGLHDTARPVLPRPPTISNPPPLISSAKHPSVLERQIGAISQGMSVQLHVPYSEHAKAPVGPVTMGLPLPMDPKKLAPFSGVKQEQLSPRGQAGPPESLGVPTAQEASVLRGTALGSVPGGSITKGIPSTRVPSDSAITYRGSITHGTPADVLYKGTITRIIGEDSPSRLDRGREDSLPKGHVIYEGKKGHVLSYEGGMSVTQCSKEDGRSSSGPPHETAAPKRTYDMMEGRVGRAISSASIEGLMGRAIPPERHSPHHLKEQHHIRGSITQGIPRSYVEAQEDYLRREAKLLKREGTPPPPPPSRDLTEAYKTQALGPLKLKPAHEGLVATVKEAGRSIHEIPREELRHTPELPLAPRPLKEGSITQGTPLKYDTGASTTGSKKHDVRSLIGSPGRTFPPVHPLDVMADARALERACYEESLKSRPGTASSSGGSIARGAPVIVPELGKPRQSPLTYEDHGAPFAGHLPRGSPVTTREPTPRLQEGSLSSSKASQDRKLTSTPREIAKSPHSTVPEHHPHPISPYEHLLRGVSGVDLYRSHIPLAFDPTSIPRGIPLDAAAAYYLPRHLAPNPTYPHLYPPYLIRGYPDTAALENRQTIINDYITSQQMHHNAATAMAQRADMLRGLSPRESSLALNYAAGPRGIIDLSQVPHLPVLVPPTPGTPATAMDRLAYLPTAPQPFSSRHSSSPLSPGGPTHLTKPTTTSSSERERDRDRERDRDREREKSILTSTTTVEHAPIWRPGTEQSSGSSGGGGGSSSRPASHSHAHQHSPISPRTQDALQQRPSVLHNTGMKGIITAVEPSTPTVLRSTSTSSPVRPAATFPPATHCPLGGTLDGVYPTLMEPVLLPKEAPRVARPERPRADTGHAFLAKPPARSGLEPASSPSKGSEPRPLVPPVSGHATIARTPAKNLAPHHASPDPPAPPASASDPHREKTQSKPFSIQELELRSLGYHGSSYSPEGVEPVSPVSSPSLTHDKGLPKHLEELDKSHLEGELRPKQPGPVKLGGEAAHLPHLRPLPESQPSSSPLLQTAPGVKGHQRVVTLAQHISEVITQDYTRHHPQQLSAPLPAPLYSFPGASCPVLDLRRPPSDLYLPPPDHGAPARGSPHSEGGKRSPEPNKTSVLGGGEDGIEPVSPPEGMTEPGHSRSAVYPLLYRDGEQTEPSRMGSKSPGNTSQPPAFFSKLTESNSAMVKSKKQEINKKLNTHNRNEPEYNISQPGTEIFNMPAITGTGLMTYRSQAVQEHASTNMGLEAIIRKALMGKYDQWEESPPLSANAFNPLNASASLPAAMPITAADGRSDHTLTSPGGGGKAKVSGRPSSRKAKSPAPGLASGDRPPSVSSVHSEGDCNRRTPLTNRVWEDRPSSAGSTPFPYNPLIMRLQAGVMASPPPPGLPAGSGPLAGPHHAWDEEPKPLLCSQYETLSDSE

SMILES strings stand for the structures.

On to `Nc1ccc(-c2nnn(Cc3c(F)cc(C(=O)NO)cc3F)n2)cc1`, for which the “inhibition (INH)” value with Histone deacetylase is “Active”. Further, the “Ratio IC50” value in series [1] worked out at 144; in series [2], 325; in [3] it was 230; in series [4], 162; in series [9], 118; in series [10], 138. In addition, the “Ratio IC50” value in series [11] is listed as 86. Moreover, the results for the remaining at […], 5 µM in series [5] and in series [8] were 74% and 48%, respectively. Moreover, the values for the remaining at 4 h, 100 µM in series [6] and in [7] were 77% and 88%, respectively. Further, the IC50 with 697 was over 1000 nM; with PBMC, over 1000 nM; in [12], 3 nM.

Turning to `Cc1nnc(-c2ccc(C(=O)NO)cc2)[nH]1`, the values for the IC50 in [13] and in series [12] were 3560 nM and 353 nM, respectively.

On to `Nc1ccc(C(=O)NO)cc1`, for which the IC50 in series [13] was determined as 18400 nM; in [12] it was 1390 nM.

Take `NCc1ccc(C(=O)NO)cc1`: in series [13], the IC50 came out at 5000 nM.

For the compound `Cn1c(Sc2c(F)cc(C(=O)NO)cc2F)nnc1-c1cccnn1`, in the series with Histone deacetylase, the “inhibition (INH)” value was “Active”. Moreover, the “Ratio IC50” value in series [1] is reported as 34; in series [2] it was 15; in series [3] it was 34; in series [4], 33; in [9] it was 16; in [10], 372. In [11], the “Ratio IC50” value is given as 278. Further, the remaining at […], 5 µM in series [5] turned out to be 79%; in series [8] it was 58%. Moreover, the remaining at 4 h, 100 µM is 98% in [6] and 100% in [7]. Further, the IC50 in the series on 697 was over 1000 nM; in the series on PBMC, over 1000 nM; in [12], 13 nM.

For `Cn1c(Sc2c(F)cc(C(=O)NO)cc2F)nnc1-c1cccc(CN2CCCCCC2)c1`, in the series on Histone deacetylase, the “inhibition (INH)” value is reported as “Active”. In addition, the “Ratio IC50” value in series [1] stood at 82; in series [2], 79; in [3], 41; in series [4], 86; in [9], 23; in [10], 310. In addition, the “Ratio IC50” value in series [11] was found to be 169. Besides, the remaining at […], 5 µM is 78% in series [5] and 55% in series [8]. In addition, the remaining at 4 h, 100 µM in series [6] worked out at 85%; in series [7], 91%. For the same compound, the IC50 in the series with 697 was over 1000 nM; with PBMC it was over 1000 nM; in series [12], 10 nM.

Regarding `CC(=O)Nc1ccc(C(=O)NO)cc1`, the IC50 in series [13] is 1670 nM; in series [12], 270 nM.

Turning to `O=C(NO)c1cc(F)c(Cc2nnc(-c3ccncc3)s2)c(F)c1`, in the series with Histone deacetylase, the “inhibition (INH)” value was “Active”. The “Ratio IC50” value in series [1] worked out at 67; in series [2], 77; in series [3] it was 139; in [4] it was 101; in series [9], 44; in series [10], 507. Moreover, the “Ratio IC50” value in series [11] turned out to be 291. The values for the remaining at […], 5 µM in series [5] and in [8] were 68% and 32%, respectively. In addition, the remaining at 4 h, 100 µM in series [6] came to 84%; in [7], 93%. For the same compound, the concentration for half-maximal inhibition (IC50) with 697 and with PBMC was over 1000 nM throughout.

Regarding `O=C(NO)c1ccccc1` [BENZOHYDROXAMATE], the IC50 in [13] stood at 71600 nM; in [12] it was 2370 nM.

Consider `Cc1cc(-c2nnc(Sc3c(F)cc(C(=O)NO)cc3F)n2C)nn1C`, for which, in the series with Histone deacetylase, the “inhibition (INH)” value is recorded as “Active”. Besides, the “Ratio IC50” value was determined as 42 in series [1]; 48 in series [2]; 19 in series [3]; 48 in series [4]; 24 in [9]; 497 in [10]. Besides, the “Ratio IC50” value in series [11] is given as 294. Moreover, the remaining at […], 5 µM came out at 76% in series [5] and 30% in [8]. The remaining at 4 h, 100 µM in [6] amounted to 80%; in series [7], 92%. In addition, the half-inhibitory concentration (IC50) in the series with 697 was over 1000 nM; with PBMC, over 1000 nM; in series [12], 6 nM.

Regarding `O=C(NO)c1cc(F)c(Cn2nnc(-c3ccco3)n2)c(F)c1`, in the series with Histone deacetylase, the “inhibition (INH)” value is listed as “Active”. Also, the “Ratio IC50” value was 194 in series [1]; 330 in series [2]; 210 in series [3]; 219 in series [4]; 192 in [9]; 876 in series [10]. In [11], the “Ratio IC50” value is recorded as 259. Moreover, the remaining at […], 5 µM came out at 94% in series [5] and 68% in series [8]. The remaining at 4 h, 100 µM in [6] and in [7] was 100% in each case. Moreover, the figures for the half-inhibitory concentration (IC50) (in the series with 697; in the series with PBMC; in series [12]) were over 1000 nM, over 1000 nM and 3 nM, respectively.

As for `O=C(NO)c1ccc(Cc2nnc[nH]2)cc1`, the results for the IC50 in series [13] and in series [12] were 2900 nM and 198 nM, respectively.
